Key:
KP1004 (KPC-2) [1] = test: Biapenem potentiation (MPC@1), strain KP1004; assay type: cell-based; settings: strain KP1004 (KPC-2), biapenem alone
From the text: (§1) Biapenem was present in the test medium at 1 Dg/mL. […] Table 4 summarizes the BLI potency of biapenem potentiation (MPC@1) for two strains overexpressing class A (KPC) and class D (OXA-48) carbapenemases. Biapenem MIC for each strain is also shown.

KP1086 (OXA-48) = test: Biapenem potentiation (MPC@1), strain KP1086; assay type: cell-based; settings: strain KP1086 (OXA-48), biapenem alone
From the text: as §1

KP1081 (NDM-1) = test: Biapenem potentiation (MPC@1), strain KP1081; assay type: cell-based; settings: strain KP1081 (NDM-1), biapenem alone
KP1054 (VIM-1) = test: Biapenem potentiation (MPC@1), strain KP1054; assay type: cell-based; settings: strain KP1054 (VIM-1), biapenem alone
[2] = system: PAM1032/KPC-2 (overexpressed MexAB-OprM); test: Biapenem potentiation (MPC64) in PAM1032/KPC-2; assay type: cell-based, Pseudomonas aeruginosa; parameters: PAM1032/KPC-2 Biapenem MPC64: unit not given here; settings: for PAM1032/KPC-2 Biapenem MPC64: BLI potency to decrease biapenem MIC 64-fold, from 32 to 0.5 μg/ml, efflux proficient strain
Procedure: (§2) Efflux of BLIs from Pseudomonas aeruginosa by the MexAB-OprM efflux pump was also evaluated. The plasmid expressing the gene encoding KPC-2 was introduced into two strains of P. aeruginosa, PAM1032 and PAM1154 that overexpressed or lacked MexAB-OprM, respectively. Due to expression of KPC-2 both strains became resistant to biapenem. […] Potency of BLIs to potentiate biapenem in these strains was determined. […] The ratio of MPC64 values for each BLI in PAM1032/KPC-2 (efflux proficient) and PAM1154/KPC-2 (efflux deficient) was determined to generate the Efflux Index (EI) as shown in Table 8.

[3] = system: PAM1154/KPC-2 (lacked MexAB-OprM); test: Biapenem potentiation (MPC64) in PAM1154/KPC-2; assay type: cell-based, Pseudomonas aeruginosa; parameters: PAM1154/KPC-2 Biapenem MPC64: unit not given here; settings: for PAM1154/KPC-2 Biapenem MPC64: BLI potency to decrease biapenem MIC 64-fold, from 32 to 0.5 μg/ml, efflux deficient strain
Procedure: as §2

CTX-M-14 = CTX-M-14 (Escherichia coli, UniProt Q9L5C7); test: Inhibition of nitrocefin cleavage by purified CTX-M-14; assay type: biochemical; settings: nitrocefin reporter substrate; 10 min preincubation at room temperature; read-out: Ki (CTX-M-14, NCF)
Procedure: (§3) Ki values of inhibition of purified class A, C and D enzymes were determined spectrophotometrically using nitrocefin as reporter substrate. Purified enzymes were mixed with various concentrations of inhibitors in reaction buffer and incubated for 10 min at room temperature. Nitrocefin was added and substrate cleavage profiles were recorded at 490 nm every 10 sec for 10 min.

SHV-12 = SHV-12 (Klebsiella pneumoniae, UniProt P0AD64, E235K/G234S/L31Q); test: Inhibition of nitrocefin cleavage by purified SHV-12; assay type: biochemical; settings: nitrocefin reporter substrate; 10 min preincubation at room temperature; read-out: Ki (SHV-12, NCF)
Procedure: as §3

KPC-2 = KPC-2 (Klebsiella pneumoniae, UniProt Q9F663); test: Inhibition of nitrocefin cleavage by purified KPC-2; assay type: biochemical; settings: nitrocefin reporter substrate; 10 min preincubation at room temperature; read-out: Ki (KPC-2, NCF)
Procedure, shortened: (§4)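 Purified enzymes are exposed to inhibitor concentrations in reaction buffer for 10 min at room temperature. Nitrocefin is then added. Cleavage is read at 490 nm every 10 sec for 10 min, giving Ki.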

P99 = P99 (Enterobacter cloacae, UniProt P05364); test: biochemical; settings: nitrocefin reporter substrate; 10 min preincubation at room temperature; read-out: Ki (P99, NCF)
Procedure: as §3

Pa-AmpC = Pa-AmpC (Pseudomonas aeruginosa, UniProt P24735); test: biochemical; settings: nitrocefin reporter substrate; 10 min preincubation at room temperature; read-out: Ki (Pa-AmpC, NCF)
Procedure: as §3

OXA-48 = OXA-48 (Klebsiella pneumoniae, UniProt Q6XEC0); test: Inhibition of nitrocefin cleavage by purified OXA-48; assay type: biochemical; settings: nitrocefin reporter substrate; 10 min preincubation at room temperature; read-out: Ki (OXA-48, NCF)
Procedure, shortened: as §4

OXA-23 = OXA-23 (Acinetobacter baumannii, UniProt Q9L4P2); test: Inhibition of nitrocefin cleavage by purified OXA-23; assay type: biochemical; settings: nitrocefin reporter substrate; 10 min preincubation at room temperature; read-out: Ki (OXA-23, NCF)
Procedure, shortened: as §4

VIM-1 = VIM-1 (Pseudomonas aeruginosa, UniProt A0A0F7KYQ8); test: Inhibition of nitrocefin cleavage by purified VIM-1; assay type: biochemical; settings: nitrocefin reporter substrate; 10 min preincubation at room temperature; read-out: Ki (VIM-1, NCF)
IMP-1 = IMP-1 (Serratia marcescens, UniProt P52699); test: Inhibition of imipenem cleavage by purified IMP-1; assay type: biochemical; settings: imipenem reporter substrate; 37° C.; read-out: Ki (IMP-1, IMI)
Procedure, shortened: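 Purified enzymes preincubated with varying inhibitor concentrations for 10 min at room temperature, then imipenem added as reporter substrate. Hydrolysis followed spectrophotometrically at 294 nm every 30 s for 30 min at 37° C; Ki values derived.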

AB1053 (OXA-72) = test: Meropenem potentiation (MPC@8), strain AB1053; assay type: cell-based; settings: Acinetobacter baumannii; strain AB1053 (OXA-72), meropenem alone
AB1054 (OXA-23) = test: Meropenem potentiation (MPC@8), strain AB1054; assay type: cell-based; settings: Acinetobacter baumannii, read-out: Meropenem MIC
ec308 (SHV-5) [4] = test: Aztreonam potentiation (MPC@4), strain ec308; settings: read-out: Aztreonam MIC
ec302 (TEM-10) [5] = test: Aztreonam potentiation (MPC@4), strain ec302; settings: read-out: Aztreonam MIC
KP1005 (CTX-M-14) [6] = test: Aztreonam potentiation (MPC@4), strain KP1005; settings: read-out: Aztreonam MIC
KP1009 (CTX-M-15) [7] = test: Aztreonam potentiation (MPC@4), strain KP1009; settings: read-out: Aztreonam MIC
KP1010 (SHV-12) [8] = test: Aztreonam potentiation (MPC@4), strain KP1010; settings: read-out: Aztreonam MIC
KP1004 (KPC-2) [9] = test: Aztreonam potentiation (MPC@4), strain KP1004; settings: read-out: Aztreonam MIC
EC1010 (CMY-6) [10] = test: Aztreonam potentiation (MPC@4), strain EC1010; settings: read-out: Aztreonam MIC
ECL1002 [11] = test: Aztreonam potentiation (MPC@4), strain ECL1002; settings: read-out: Aztreonam MIC
ec308 (SHV-5) [12] = test: Tigemonam potentiation (MPC@4), strain ec308; assay type: cell-based; settings: strain ec308 (SHV-5), tigemonam alone
ec302 (TEM-10) [13] = test: Tigemonam potentiation (MPC@4), strain ec302; assay type: cell-based; settings: strain ec302 (TEM-10), tigemonam alone
ECL1002 [14] = test: Tigemonam potentiation (MPC@4), strain ECL1002; assay type: cell-based; settings: strain ECL1002, tigemonam alone
EC1010 (CMY-6) [15] = test: Tigemonam potentiation (MPC@4), strain EC1010; assay type: cell-based; settings: strain EC1010 (CMY-6), tigemonam alone
KP1005 (CTX-M-14) [16] = test: Tigemonam potentiation (MPC@4), strain KP1005; settings: strain KP1005 (CTX-M-14), tigemonam alone
KP1009 (CTX-M-15) [17] = test: Tigemonam potentiation (MPC@4), strain KP1009; settings: strain KP1009 (CTX-M-15), tigemonam alone
KP1010 (SHV-12) [18] = test: Tigemonam potentiation (MPC@4), strain KP1010; settings: strain KP1010 (SHV-12), tigemonam alone

P99, sequence (P05364 21-381): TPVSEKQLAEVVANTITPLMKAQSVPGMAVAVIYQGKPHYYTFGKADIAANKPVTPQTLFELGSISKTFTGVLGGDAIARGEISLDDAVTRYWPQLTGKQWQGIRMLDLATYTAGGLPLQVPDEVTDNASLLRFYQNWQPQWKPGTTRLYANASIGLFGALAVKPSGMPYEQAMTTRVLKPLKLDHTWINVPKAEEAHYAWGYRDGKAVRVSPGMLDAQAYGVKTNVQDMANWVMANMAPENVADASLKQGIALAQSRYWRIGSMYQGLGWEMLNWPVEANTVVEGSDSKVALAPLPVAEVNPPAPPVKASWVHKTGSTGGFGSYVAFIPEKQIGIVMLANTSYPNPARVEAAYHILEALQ
Pa-AmpC, sequence (P24735 27-397): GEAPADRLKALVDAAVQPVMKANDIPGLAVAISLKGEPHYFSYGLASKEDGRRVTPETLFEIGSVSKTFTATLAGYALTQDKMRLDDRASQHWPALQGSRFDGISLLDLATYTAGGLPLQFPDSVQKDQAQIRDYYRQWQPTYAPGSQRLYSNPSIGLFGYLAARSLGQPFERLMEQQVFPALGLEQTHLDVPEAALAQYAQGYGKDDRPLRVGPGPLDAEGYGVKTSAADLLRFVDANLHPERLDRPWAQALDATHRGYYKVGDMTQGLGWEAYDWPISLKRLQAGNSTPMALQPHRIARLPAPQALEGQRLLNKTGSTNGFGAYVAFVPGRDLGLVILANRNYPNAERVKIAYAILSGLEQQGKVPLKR
SHV-12, sequence (P0AD64 22-286 L31Q/G234S/E235K): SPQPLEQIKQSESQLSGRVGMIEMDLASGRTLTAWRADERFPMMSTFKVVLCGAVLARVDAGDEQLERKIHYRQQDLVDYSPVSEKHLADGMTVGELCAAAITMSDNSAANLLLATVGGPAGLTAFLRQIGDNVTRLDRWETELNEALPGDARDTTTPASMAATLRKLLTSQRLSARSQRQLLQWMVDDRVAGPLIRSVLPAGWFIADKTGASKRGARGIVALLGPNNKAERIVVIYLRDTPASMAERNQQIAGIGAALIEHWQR
OXA-23, sequence (Q9L4P2 18-273): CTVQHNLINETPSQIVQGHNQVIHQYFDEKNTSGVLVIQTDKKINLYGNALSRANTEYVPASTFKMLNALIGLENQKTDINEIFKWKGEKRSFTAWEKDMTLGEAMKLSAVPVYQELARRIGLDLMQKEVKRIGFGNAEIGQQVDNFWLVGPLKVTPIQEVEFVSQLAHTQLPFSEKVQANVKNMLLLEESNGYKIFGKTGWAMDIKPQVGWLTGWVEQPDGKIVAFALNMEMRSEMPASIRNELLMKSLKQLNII
CTX-M-14, sequence (Q9L5C7 29-291, species assumed): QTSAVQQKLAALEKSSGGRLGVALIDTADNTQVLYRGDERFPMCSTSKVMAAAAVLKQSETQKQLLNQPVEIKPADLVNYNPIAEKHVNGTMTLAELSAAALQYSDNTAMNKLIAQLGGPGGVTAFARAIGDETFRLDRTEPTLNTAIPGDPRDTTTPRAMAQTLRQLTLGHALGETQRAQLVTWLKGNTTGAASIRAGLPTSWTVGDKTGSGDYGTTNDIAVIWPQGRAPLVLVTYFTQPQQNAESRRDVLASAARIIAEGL
IMP-1, sequence (P52699 19-246, looked up, species assumed): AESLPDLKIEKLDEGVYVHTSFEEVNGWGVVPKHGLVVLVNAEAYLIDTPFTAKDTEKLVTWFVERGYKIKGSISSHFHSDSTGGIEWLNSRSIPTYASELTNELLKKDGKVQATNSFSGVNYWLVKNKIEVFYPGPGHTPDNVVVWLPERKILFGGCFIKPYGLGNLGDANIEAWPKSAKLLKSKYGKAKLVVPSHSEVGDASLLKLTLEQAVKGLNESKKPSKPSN
KPC-2, sequence (Q9F663 25-293 limits assumed): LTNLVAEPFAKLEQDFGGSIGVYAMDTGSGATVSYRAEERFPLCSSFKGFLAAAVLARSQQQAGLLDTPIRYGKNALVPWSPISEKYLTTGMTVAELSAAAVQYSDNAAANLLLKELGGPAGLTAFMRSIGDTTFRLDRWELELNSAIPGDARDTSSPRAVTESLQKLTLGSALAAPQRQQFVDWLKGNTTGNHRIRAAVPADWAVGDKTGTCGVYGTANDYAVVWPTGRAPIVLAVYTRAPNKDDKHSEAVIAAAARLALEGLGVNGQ
OXA-48, sequence (Q6XEC0 23-265, looked up): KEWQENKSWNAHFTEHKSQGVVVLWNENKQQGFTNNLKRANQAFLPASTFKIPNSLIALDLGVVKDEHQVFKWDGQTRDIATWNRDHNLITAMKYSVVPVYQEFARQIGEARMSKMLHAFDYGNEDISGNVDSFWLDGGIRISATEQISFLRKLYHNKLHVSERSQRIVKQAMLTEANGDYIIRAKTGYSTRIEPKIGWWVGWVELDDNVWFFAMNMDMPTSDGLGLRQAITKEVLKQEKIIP

C[C@@H](O)[C@H]1C(=O)N2C(C(=O)[O-])=C(SC3Cn4cnc[n+]4C3)[C@H](C)[C@H]12 (stereo partly drawn) [Biapenem]
MIC (KP1004 (KPC-2) [1]): 32 µg/mL | MIC (KP1086 (OXA-48)): 16 µg/mL | MIC (KP1081 (NDM-1)): 16 µg/mL | MIC (KP1054 (VIM-1)): 16 µg/mL | MIC ([2]; Pseudomonas aeruginosa, PAM1032/KPC-2, biapenem alone): 32 µg/mL | MIC ([3]; Pseudomonas aeruginosa, PAM1154/KPC-2, biapenem alone): 32 µg/mL

O=C(O)c1c(F)ccc2c1OB(O)[C@@H]1C[C@H]21 [Compound 13, (1aR,7bS)-5-fluoro-2-hydroxy-1a,7b-dihydro-1H-cyclopropa[c][1,2]benzoxaborinine-4-carboxylic acid]
Ki (CTX-M-14): < 100 nM | Ki (SHV-12): < 100 nM | Ki (KPC-2): < 100 nM | Ki (P99): < 100 nM | Ki (Pa-AmpC): < 100 nM | Ki (OXA-48): < 100 nM | Ki (OXA-23): < 100 nM | Ki (VIM-1): < 100 nM | Ki (IMP-1): 100 to 1000 nM | PAM1032/KPC-2 Biapenem MPC64 [2]: 2.5 | PAM1154/KPC-2 Biapenem MPC64 [3]: 2.5

C[C@@H](O)[C@H]1C(=O)N2C(C(=O)O)=C(S[C@@H]3CN[C@H](C(=O)N(C)C)C3)[C@H](C)[C@H]12 [Meropenem]
MIC (AB1053 (OXA-72)): > 64 µg/mL | MIC (AB1054 (OXA-23)): 32 µg/mL

C[C@H]1[C@H](NC(=O)/C(=N\OC(C)(C)C(=O)O)c2csc(N)n2)C(=O)N1S(=O)(=O)O [Aztreonam]
MIC (ec308 (SHV-5) [4]): > 128 µg/mL | MIC (ec302 (TEM-10) [5]): 128 µg/mL | MIC (KP1005 (CTX-M-14) [6]): > 128 µg/mL | MIC (KP1009 (CTX-M-15) [7]): > 128 µg/mL | MIC (KP1010 (SHV-12) [8]): 64 µg/mL | MIC (KP1004 (KPC-2) [9]): > 128 µg/mL | MIC (EC1010 (CMY-6) [10]): > 128 µg/mL | MIC (ECL1002 [11]): 64 µg/mL

CC1(C)[C@H](NC(=O)/C(=N\OCC(=O)O)c2csc(N)n2)C(=O)N1OS(=O)(=O)O [Tigemonam]
Tigemonam MIC (ec308 (SHV-5) [12]): >64 µg/mL | Tigemonam MIC (ec302 (TEM-10) [13]): >64 µg/mL | Tigemonam MIC (ECL1002 [14]): 32 µg/mL | Tigemonam MIC (EC1010 (CMY-6) [15]): 16 µg/mL | Tigemonam MIC (KP1005 (CTX-M-14) [16]): >64 µg/mL | Tigemonam MIC (KP1009 (CTX-M-15) [17]): >64 µg/mL | Tigemonam MIC (KP1010 (SHV-12) [18]): >64 µg/mL

O=C(O)c1c(F)ccc2c1OB(O)[C@H]1C[C@@H]21 [Compound 12, (1aS,7bR)-5-fluoro-2-hydroxy-1a,7b-dihydro-1H-cyclopropa[c][1,2]benzoxaborinine-4-carboxylic acid]
Ki (CTX-M-14): < 100 nM | Ki (SHV-12): < 100 nM | Ki (KPC-2): < 100 nM | Ki (P99): < 100 nM | Ki (Pa-AmpC): 100 to 1000 nM | Ki (OXA-48): < 100 nM | Ki (OXA-23): < 100 nM | Ki (VIM-1): > 1000 nM | Ki (IMP-1): > 1000 nM | PAM1032/KPC-2 Biapenem MPC64 [2]: 2.5 | PAM1154/KPC-2 Biapenem MPC64 [3]: 1.25
